What was measured:
[1] = tested on: cerebral cortex; settings: TAF1 edited animals; SAK3 0.25 mg/kg p.o.
Experimental: (§1) After weaning, the rat pups were separated from the dams and maintained 4 per cage. Animals were divided into six groups. […] Rats were sacrificed at PD35. Animals were behaviorally assessed before being euthanized for histological and protein expression analysis. All biochemical, electrophysiology, and behavior experiments were performed in a blinded fashion. Animal protocols were approved by the Institutional Animal Care and Use Committee of the College of Medicine at the University of Arizona and conducted in accordance with the Guide for Care and Use of Laboratory Animals published by the National Institutes of Health.
(§2) Intracerebroventricular injections: Bilateral intracerebroventricular (ICV) injections were performed as previously described in Sprague-Dawley (SD) rat pups on postnatal day 3. Briefly, newborn SD rat puts were anesthetized by isoflurane. A 10 μl syringe (Hamilton Gastight Syringe, #1701) was used to pierce the skull (coordinates from bregma: −0.6 mm posterior, ±1.75 mm lateral/medial, and −2.5 mm ventral), and 2.5 μl of CRISPR lentivirus (gRNA-control or gRNA-TAF1) was injected into each cerebral ventricle without opening the scalp. Neonatal rat pups were kept with the dam until weaned.

[2] = tested on: TAF1-edited animals
Experimental: as §1, §2

[3] = tested on: cerebral cortex neurons; settings: TAF1-edited animals
Experimental: as §1, §2

[4] = tested on: gRNA-TAF1 edited Purkinje cells; settings: gRNA-TAF1 edited Purkinje cells in cerebellar slices
Experimental: as §2

[5] = tested on: TAF1 Intellectual Disability Syndrome
Description: A child is brought by their parent to see their pediatrician for a routine childhood check-up. During the check-up, the pediatrician notices some minor motor deficits in the child. The pediatrician communicates their concerns about the child to their parent. […] A week later, the child is taken in for genetic testing. A month later, the child is brought back to the pediatrician's office so that the pediatrician may discuss the genetic testing results with their parents.

[6] = tested on: BDNF; settings: TAF1 edited animals; SAK3 0.25 mg/kg p.o.
Experimental: as §1, §2
(§3) Rats (n=6 animals per experimental condition) were perfused with saline, and 4% formaldehyde in phosphate buffer saline (PBS) at PD 35, and the brains were extracted and post-fixed in 4% paraformaldehyde for 8 hours at 4° C. Cerebral cortex sections were cut sagittally at 20 μm using a cryostat (Microm HM 505 E). After rinsing the sections in PBS for 5 min, the sections were incubated with a 0.1% H2O2 solution in PBS for 5 min, rinsed in PBS for 5 times for 5 min, and incubated for 30 min with 0.4% Triton X-100, rinsed in PBS and blocked with 8% goat serum and 1% Triton X-100 in PBS. After blocking, the sections were incubated at 4° C. overnight with the indicated antibodies diluted in 4% goat serum in PBS. The sections were washed in 1% goat serum in PBS, incubated with secondary antibody anti-rabbit Alexa fluor 488 (Life Technologies) or anti-mouse Alexa fluor 488 (Life Technologies), as needed, in 4% goat serum for 2 h, washed with PBS 3 times for 5 mins, and incubated with DAPI (Catalogue No: D1306, Thermofisher Scientific) at a concentration of 50 ng/ml for 2 mins. Sections were then washed and further air dried, and coverslip with glycerol.

[7] = tested on: CaV3.1 T-type channel; settings: TAF-1 edited animals; SAK3 0.25 mg/kg p.o.
Experimental: as §1, §2, §3

[8] = tested on: AKT (phosphorylated at Ser 473); settings: cortex of TAF-1 edited animals; SAK3 0.25 mg/kg p.o.
Experimental: as §1, §2, §3

[9] = tested on: GFAP-positive astrocytes; settings: TAF1-edited animals; SAK3 0.25 mg/kg p.o.; vs TAF1 edited group
Experimental: as §1, §2, §3

[10] = tested on: Iba1-positive microglia; settings: TAF1-edited animals; SAK3 0.25 mg/kg p.o.; vs TAF1 edited group
Experimental: as §1, §2, §3

[11] = tested on: B-cell lymphoma 2 (BcI-2); settings: TAF1 edited animals; SAK3 0.25 mg/kg p.o.; Western
Experimental: as §1, §2
(§4) Western blotting analysis: After decapitation of animals, brain tissue from the cerebellum was dissected, snap frozen in liquid nitrogen prior to storage at −80° C. until analysis. Western blot analyses were performed as described in Janakiraman et al (Janakiraman, U., Yu, J., Moutal, A., Chinnasamy, D., Boinon, L., Batchelor, S. N., Anandhan, A., Khanna, R., and Nelson, M. A. (2019) TAF1-gene editing alters the morphology and function of the cerebellum and cerebral cortex. Neurobiol Dis 132, 104539). In brief, frozen samples were homogenized with a RIPA buffer and centrifuged at 4 °C, 20,000xg for 20 min. Supernatant protein concentrations were determined using BCA method (Catalog No: #23227, Thermo Scientific), and samples were then boiled 5 min in Laemmli's sample buffer (Catalog No: NP0008, Life Technologies). Equal amounts of protein were loaded onto and run on SDS-polyacrylamide gels (Catalog No: #4568084, Bio-Rad) and then transferred to polyvinylidene difluoride membrane (Catalog No: #1620177, Bio-Rad). After transfer, membranes were blocked with TBST solution (50 mM Tris-HCl, pH 7.5, 150 mM NaCl, and 0.1% Tween 20) containing 5% non-fat dry milk at 4 °C for 1 hour. After blocking membranes were incubated overnight at 4° C. with anti-CaMKII (pan) (1:500; Cell Signaling), anti-phospho-CaMKII (Thr-286) (1:1000; Cell Signaling), anti-cleaved caspase-3 (Asp175) (1:1000; Cell Signaling), anti-Bax (1:1000; Cell Signaling) anti-Bcl-2 (1:1000; Abcam), anti-phospho-GSK3p(Ser9) (1:1000; Cell Signaling), anti-GSK3p (1:1000; Cell Signaling), anti-BDNF (1:750; Abcam), anti-Foxp2 (1:1000; Abcam), anti-CRMP2 pThr509/Thr514 (1:1000; Kina Source Limited), anti-CRMP2 (1:1000; Sigma), and 6111-Tubulin (1:1000; Promega) in 3% BSA.

[12] = tested on: Phospho (Ser 9)-GSK3β; settings: SAK3 0.25 mg/kg p.o.
Experimental: as §1, §2, §4

[13] = tested on: BCL2 Associated X (BAX); settings: TAF1 edited animals; SAK3 0.25 mg/kg p.o.; Western
Experimental: as §1, §2, §4

[14] = tested on: BDNF; settings: TAF1 edited animals; cerebral cortex samples; SAK3 0.25 mg/kg p.o.
Experimental: as §1, §2, §4

[15] = tested on: cleaved caspase 3; settings: TAF1 edited animals; SAK3 0.25 mg/kg p.o.; Western
Experimental: as §1, §2, §4

[16] = tested on: phospho-CRMP2 (Thr 509/514); settings: TAF1 edited animals; SAK3 0.25 mg/kg p.o.
Experimental: as §1, §2, §4

[17] = tested on: FOXP2; settings: TAF1-edited animals; SAK3 0.25 mg/kg p.o.
Experimental: as §1, §2, §4

[18] = tested on: p-CaMKII; settings: cerebellum of TAF1 edited animals; SAK3 0.25 mg/kg p.o.
Experimental: as §1, §2, §4

[19] = SAK3 0.25 mg/kg p.o. PD21 to PD35, vs TAF1-edited animals

## CCOC(=O)C1=C(N2CCCCC2)C2(CC1=O)C(=O)N=C1C(C)=CC=CN12 (stereo not drawn) [SAK3, ethyl 8′-methyl-2′, 4-dioxo-2-(piperidin-1-yl)-2′H-spiro [cyclopent[2]ene-1,3′-imidazo[1,2-a]pyridine]-3-carboxylate]
[1]
  Number of TUNEL positive cells: reduced the number of TUNEL positive cells to control levels
[2]; SAK3 0.25 mg/kg p.o. PD21 to PD35, open field 5 min
  Grooming frequency (number of groomings): blunted by SAK3 treatment
[2]; [19]
  Beam crossing time: rescue of the beam crossing time
  Number of foot slip errors: rescue of the beam crossing time and foot slip errors
[3]; SAK3 0.25 mg/kg p.o. PD21 to PD35
  Morphology of the cells in the cortex (Nissl staining): improved the morphology of the cells in the cortex
[3]; SAK3 0.25 mg/kg p.o., vs TAF1-edited animals
  Number of viable cells in the cerebral cortex: increased the number of viable cells
[4]; SAK3 0.1 nM
  Amplitudes of sEPSC: No changes
[4]; SAK3 0.1 nM in perfusion, held at −70 mV, mean±S.E.M.
  Frequency of sEPSC: 2.13±0.29 Hz
[5]; child with TAF1 ID syndrome, SAK3 composition orally, after six months
  Motor skills and cognitive abilities: improved motor skills and cognitive abilities
[5]; in vivo, po
  Side effects: No side effects reported
[6]
  BDNF expression (immunofluorescence, BDNF-positive cells): restored BDNF expression to the levels in Naïve and gRNA-control groups
[7]
  CaV3.1 T-type channel expression: restored by SAK3 treatment
[8]
  Activated AKT (phosphorylated at Ser 473) expression: prevented by SAK3 treatment
[9]
  Number of GFAP-positive cells: increase the number of GFAP-positive cells
[10]
  Number of Iba1-positive cells: decrease the number of Iba1-positive cells
[11]
  Bcl-2 level: up-regulation of B-cell lymphoma 2 (BcI-2)
[12]; TAF1 edited animals, cerebral cortex samples
  Phospho (Ser 9)-GSK3β levels: increased phopho-GSK3β levels
[12]; gRNA-TAF1 edited animals, cerebellum samples
  p-GSK3β levels: rescued by SAK3 treatment
[13]
  BAX level: downregulation of the pro-apoptotic factor BCL2 Associated X (BAX)
[14]
  BDNF expression (Western analysis): restored BDNF expression to the levels in Naïve and gRNA-control groups
[15]
  Activated (cleaved) caspase 3 level: downregulation of activated caspase 3
[16]
  phospho-CRMP2 (Thr 509/514) levels: restored phospho-CRMP2 levels
[17]
  FOXP2 levels: restored FOXP2
[18]
  CaMKII activation (phosphorylation at T286): restoration of CaMKII activation in the cerebellum of SAK3 treated animals was not observed

Source: patent US20230233544A1, “T-TYPE CALCIUM CHANNEL ENHANCER FOR TREATING TAF1 ASSOCIATED NEUROLOGICAL DEFECTS” (ARIZONA BOARD OF REGENTS ON BEHALF OF THE UNIVERSITY OF …, priority 2020, published 2023)
